Reference: US20060004004A1, “Novel gamma secretase inhibitors” (Schering Corporation, priority 2004, published 2006)
Several values for one entry are separate records, joined by “and”; a condition that tells them apart may be missing. Equal values may be shown once. Read-outs that look alike come from different tables or passages of the source.

Target: T1, γ-secretase (Homo sapiens, UniProt P49768)
T1 construct: endogenous in cells; host or cells: membranes of 293 cells (T-REx, clone pTRE.15) with tetracycline-induced SPC99-Lon
Experiment: Gamma secretase activity, membrane assay with Aβ 40 / Aβ 42 ECL immunoassay (Zhang et al.)
Assay type: biochemical
Description: Antibodies W02, G2-10, and G2-11 were obtained from Dr. Konrad Beyreuther (University of Heidelberg, Heidelberg, Germany). W02 recognizes residues 5-8 of Aβ peptide, while G2-10 and G2-11 recognize the specific C-terminal structure of Aβ 40 and Aβ 42, respectively. Biotin-4G8 was purchased from Senetec (St. Louis, Mo.). All tissue culture reagents used in this work were from Life Technologies, Inc., unless otherwise specified. Pepstatin A was purchased from Roche Molecular Biochemicals; DFK167 was from Enzyme Systems Products (Livermore, Calif.).
Upon insertion into the membrane, the 17 amino acid signal peptide is processed, leaving an additional leucine at the N-terminus of Aβ. SPC99-lon was cloned into the pcDNA4/TO vector (Invitrogen) and transfected into 293 cells stably transfected with pcDNA6/TR, which is provided in the T-REX system (Invitrogen). The transfected cells were selected in Dulbecco's modified Eagle's media (DMEM) supplemented with 10% fetal bovine serum, 100 units/mL penicillin, 100 µg/mL streptomycin, 250 µg/mL zeocin, and 5 µg/mL blasticidin (Invitrogen). Colonies were screened for Aβ production by inducing C99 expression with […] tetracycline for 16-20 h and analyzing conditioned media with a sandwich immunoassay (see below). One of the clones, designated as pTRE.15, was used in these studies.
C99 expression in cells was induced with […] tetracycline for 20 h. The cells were pretreated with […] 12-myristate 13-acetate (PMA) and […] brefeldin A (BFA) for 5-6 h at 37° C. before harvesting. The cells were washed 3 times with cold phosphate-buffered saline (PBS) and harvested in buffer A containing 20 mM Hepes (pH 7.5), 250 mM sucrose, 50 mM KCl, 2 mM EDTA, 2 mM EGTA, and Complete protease inhibitor tablets (Roche Molecular Biochemicals). The cell pellets were flash-frozen in liquid nitrogen and stored at −70° C. before use.
To make membranes, the cells were resuspended in buffer A and lysed in a nitrogen bomb at 600 psi. The cell lysate was centrifuged at 1500 g for 10 min to remove nuclei and large cell debris. The supernatant was centrifuged at 100000 g for 1 h. The membrane pellet was resuspended in buffer A plus 0.5 M NaCl, and the membranes were collected by centrifugation at 200000 g for 1 h. The salt-washed membrane pellet was washed again in buffer A and centrifuged at 100000 g for 1 h. The final membrane pellet was resuspended in a small volume of buffer A using a Teflon-glass homogenizer. The protein concentration was determined, and membrane aliquots were flash-frozen in liquid nitrogen and stored at −70° C.
γ-Secretase Reaction and Aβ Analysis To measure γ-secretase activity, membranes were incubated at 37° C. for 1 h in […] of buffer containing 20 mM Hepes (pH 7.0) and 2 mM EDTA. At the end of the incubation, Aβ 40 and Aβ 42 were measured using an electrochemiluminescence (ECL)-based immunoassay. Aβ 40 was identified with antibody pairs TAG-G2-10 and biotin-W02, while Aβ 42 was identified with TAG-G2-11 and biotin-4G8. The ECL signal was measured using an ECL-M8 instrument (IGEN International, Inc.) according to the manufacturer's instructions. The data presented were the means of the duplicate or triplicate measurements in each experiment.

[1] = same membrane assay, ranges given as 'about', read-out: IC50 values within the range
[2] = membranes of 293 cells expressing SPC99-Lon (clone pTRE.15), 37° C., 1 h, read-out: IC50 (μM), γ-secretase inhibitory activity

| SMILES | IC50 [1] | IC50 [2] [µM] |
| --- | --- | --- |
| C[C@@H]1CN(CCO)CCN1C(=O)C1([C@H]2CCC[C@@H](c3cc(F)cc(F)c3)N2S(=O)(=O)c2ccc(Cl)cc2)CC1 [Example 11] | 0.001 to 0.2 µM |  |
| O=S(=O)(CC1([C@H]2CCC[C@@H](c3cc(F)cc(F)c3)N2S(=O)(=O)c2ccc(Cl)cc2)CC1)N1CC[C@H](O)C1 [Example 20] | 0.001 to 0.2 µM and 0.001 to 0.02 µM | 0.0151 |
| O=S(=O)(CC1([C@H]2CCC[C@@H](c3cc(F)cc(F)c3)N2S(=O)(=O)c2ccc(Cl)cc2)CC1)N1CCN(CCO)CC1 [Example 23] | 0.001 to 0.2 µM and 0.001 to 0.02 µM | 0.0124 |
| O=S(=O)(CC1([C@@H]2CCC[C@H](c3cc(F)cc(F)c3)N2S(=O)(=O)c2ccc(Cl)cc2)CC1)N1CCC(N2CCCCC2)CC1 [Example 19] | 0.001 to 0.2 µM and 0.001 to 0.02 µM | 0.0119 |
| O=C(N1CCC[C@H]1CO)C1([C@H]2CCC[C@@H](c3cc(F)cc(F)c3)N2S(=O)(=O)c2ccc(Cl)cc2)CC1 [Example 7] | 0.001 to 0.2 µM |  |
| O=C(CC1(C2CCCC(c3cc(F)cc(F)c3)N2S(=O)(=O)c2ccc(Cl)cc2)CC1)N1CC[C@H](O)C1 (some centres unmarked) [Example 3] | 0.001 to 0.2 µM and 0.001 to 0.02 µM | 0.0132 |
| O=C(N1CCC(N2CCCCC2)CC1)C1([C@H]2CCC[C@@H](c3cc(F)cc(F)c3)N2S(=O)(=O)c2ccc(Cl)cc2)CC1 [Example 9] | 0.001 to 0.2 µM |  |
| O=C(CC1([C@@H]2CCC[C@H](c3cc(F)cc(F)c3)N2S(=O)(=O)c2ccc(Cl)cc2)CC1)N1CCN(CCO)CC1 [Example 1] | 0.001 to 0.2 µM and 0.001 to 0.02 µM | 0.0028 |
| O=C(N1C[C@@H](N2CCCCC2)C[C@@H]1CO)C1([C@H]2CCC[C@@H](c3cc(F)cc(F)c3)N2S(=O)(=O)c2ccc(Cl)cc2)CC1 [Example 17] | 0.001 to 0.2 µM |  |
| O=C(CC1([C@H]2CCC[C@@H](c3cc(F)cc(F)c3)N2S(=O)(=O)c2ccc(Cl)cc2)CC1)N1CCC[C@H]1CO [Example 5] | 0.001 to 0.2 µM and 0.001 to 0.02 µM | 0.0196 |
| O=S(=O)(CC1([C@H]2CCC[C@@H](c3cc(F)cc(F)c3)N2S(=O)(=O)c2ccc(Cl)cc2)CC1)N1CCC[C@H]1CO [Example 22] | 0.001 to 0.2 µM and 0.001 to 0.02 µM | 0.0164 |
| O=C(CC1([C@H]2CCC[C@@H](c3cc(F)cc(F)c3)N2S(=O)(=O)c2ccc(Cl)cc2)CC1)N1CCCC1 [Example 6] | 0.001 to 0.2 µM |  |
| O=C(C(O)C1([C@H]2CCC[C@@H](c3cc(F)cc(F)c3)N2S(=O)(=O)c2ccc(Cl)cc2)CC1)N1CCC(N2CCCCC2)CC1 (some centres unmarked) [Example 25] | 0.001 to 0.2 µM and 0.001 to 0.02 µM | 0.0049 |
| CCC1(OC)CC2CCC(C1)N2C(=O)C(O)C1([C@H]2CCC[C@@H](c3cc(F)cc(F)c3)N2S(=O)(=O)c2ccc(Cl)cc2)CC1 (some centres unmarked) [Example 28] | 0.001 to 0.2 µM and 0.001 to 0.02 µM |  |
| O=C(C(O)C1([C@H]2CCC[C@@H](c3cc(F)cc(F)c3)N2S(=O)(=O)c2ccc(Cl)cc2)CC1)N1CCC[C@H]1CO (some centres unmarked) [Example 26] | 0.001 to 0.2 µM |  |
| CN1CCN(S(=O)(=O)CC2([C@H]3CCC[C@@H](c4cc(F)cc(F)c4)N3S(=O)(=O)c3ccc(Cl)cc3)CC2)CC1 [Example 21] | 0.001 to 0.2 µM and 0.001 to 0.02 µM | 0.0117 |
| O=C(CC1([C@H]2C[C@@H](O)C[C@@H](C3CC3)N2S(=O)(=O)c2ccc(Cl)cc2)CC1)N1CC[C@@H](O)C1 [Example 47] | 0.001 to 0.2 µM |  |
| CCC1(O)CC2CCC(C1)N2C(=O)C(O)C1([C@H]2CCC[C@@H](c3cc(F)cc(F)c3)N2S(=O)(=O)c2ccc(Cl)cc2)CC1 (some centres unmarked) [Example 29] | 0.001 to 0.2 µM and 0.001 to 0.02 µM | 0.0068 |
| O=C(CC1([C@H]2C[C@@H](O)C[C@@H](C3CC3)N2S(=O)(=O)c2ccc(Cl)cc2)CC1)N1CCC(N2CCCCC2)CC1 [Example 46] | 0.001 to 0.02 µM and 0.001 to 0.2 µM |  |
| O=C(N1CCN(CCO)CC1)C1([C@H]2CCC[C@@H](c3cc(F)cc(F)c3)N2S(=O)(=O)c2ccc(Cl)cc2)CC1 [Example 10] | 0.001 to 0.2 µM |  |
| O=C(N1CCCC1)C1([C@H]2CCC[C@@H](c3cc(F)cc(F)c3)N2S(=O)(=O)c2ccc(Cl)cc2)CC1 [Example 8] | 0.001 to 0.2 µM |  |
| O=C(CC1(C2CCCC(c3cc(F)cc(F)c3)N2S(=O)(=O)c2ccc(Cl)cc2)CC1)N1CCCCC1 (centres unmarked) [Example 2] | 0.001 to 0.2 µM and 0.001 to 0.02 µM | 0.0164 |
| O=S(=O)(CC1([C@H]2CCC[C@@H](c3cc(F)cc(F)c3)N2S(=O)(=O)c2ccc(Cl)cc2)CC1)N1CCC(N2CCOCC2)CC1 [Example 24] | 0.001 to 0.2 µM and 0.001 to 0.02 µM | 0.0145 |
| O=C(CC1([C@H]2CCC[C@@H](C3CC3)N2S(=O)(=O)c2ccc(Cl)cc2)CC1)N1CCN2CCCC2C1 (some centres unmarked) [Example 44] | 0.001 to 0.2 µM |  |
| O=C(C(O)C1([C@H]2CCC[C@@H](c3cc(F)cc(F)c3)N2S(=O)(=O)c2ccc(Cl)cc2)CC1)N1CC[C@H](O)C1 (some centres unmarked) [Example 27] | 0.001 to 0.2 µM |  |
| O=C(CC1(C2CCCC(c3cc(F)cc(F)c3)N2S(=O)(=O)c2ccc(Cl)cc2)CC1)N1CCC(N2CCCCC2)CC1 (centres unmarked) [Example 4] | 0.001 to 0.2 µM and 0.001 to 0.02 µM | 0.0014 |
| CCC1(O)CC2CCC(C1)N2C(=O)CC1([C@H]2C[C@@H](O)C[C@@H](C3CC3)N2S(=O)(=O)c2ccc(Cl)cc2)CC1 (some centres unmarked) [Example 48] | 0.001 to 0.02 µM and 0.001 to 0.2 µM | 0.0048 |
